The source made the active and inactive calls. The rule behind the calls is not given here.
Key:
[1] = molecular target: Sonic hedgehog protein (Homo sapiens, UniProt Q15465); test: Binding affinity to recombinant Shh N-terminal peptide by surface plasma resonance
[2] = molecular target: Sonic hedgehog protein (Mus musculus) (UniProt Q62226); test: Inhibition of SHH in mouse Ptch deffective MEF cells after 30 hrs by Gli-responsive beta-galactosidse reporter gene assay; format: cell-based
[3] = molecular target: Sonic hedgehog protein (Mus musculus, UniProt Q62226); test: (§1) Inhibition of SHH in mouse Shh Light2 cells after 30 hrs by GLI-responsive bright glo luciferase reporter gene assay; format: functional, cell-based, Shh Light II
Chain of Sonic hedgehog protein (Mus musculus, UniProt Q62226) (Q62226 25-198 limits assumed): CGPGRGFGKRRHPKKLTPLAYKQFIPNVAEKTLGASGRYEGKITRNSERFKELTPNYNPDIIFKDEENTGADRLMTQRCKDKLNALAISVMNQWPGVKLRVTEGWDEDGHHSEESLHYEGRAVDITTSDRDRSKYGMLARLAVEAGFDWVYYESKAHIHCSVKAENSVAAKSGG

[4] = molecular target: Sonic hedgehog protein (Mus musculus) (UniProt Q62226); test: Inhibition of SHH in mouse Shh Light2 cells after 30 hrs by GLI-responsive bright glo luciferase reporter gene assay relative to 6 uM cyclopamine; format: functional, cell-based; conditions: Shh Light II
[5] = Cytotoxicity against mouse Shh Light2 cells by cell titer glo assay; format: cell-based; conditions: shh light ii
[6] = molecular target: Sonic hedgehog protein (Mus musculus) (UniProt Q62226); test: Inhibition of SHH in mouse Shh Light2 cells after 30 hrs by GLI-responsive bright glo luciferase reporter gene assay at 15.6 uM relative to 6 uM cyclopamine; format: functional, cell-based; conditions: Shh Light II
[7] = molecular target: Sonic hedgehog protein (Mus musculus) (UniProt Q62226); test: Inhibition of SHH in mouse Shh Light2 cells after 30 hrs by GLI-responsive bright glo luciferase reporter gene assay relative to cyclopamine; format: functional, cell-based; conditions: Shh Light II
[8] = molecular target: Sonic hedgehog protein (Mus musculus) (UniProt Q62226); test: as §1; format: functional, cell-based; conditions: Shh Light II

Chain of Sonic hedgehog protein (Homo sapiens, UniProt Q15465) (Q15465 24-197 limits assumed): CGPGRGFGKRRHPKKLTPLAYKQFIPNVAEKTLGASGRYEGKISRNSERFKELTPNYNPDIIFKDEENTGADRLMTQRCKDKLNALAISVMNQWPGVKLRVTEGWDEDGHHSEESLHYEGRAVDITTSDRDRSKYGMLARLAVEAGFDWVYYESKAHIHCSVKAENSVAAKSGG

| Compound | Activity [1] | inhibition [2] | Activity [5] | also measured |
| --- | --- | --- | --- | --- |
| O=C(C[C@@H]1C/C=C/CCC(=O)O[C@H](c2ccccc2)CNC1=O)NCc1ccc(Cl)cc1 [ROBOTNIKININ] | Dose-dependent effect | inactive | Non-toxic | EC50 [3]: 4 µM; ECmax [4]: 91% |
| O=C(C[C@H]1C/C=C/CCCCC(=O)O[C@H](c2ccccc2)CNC1=O)NCc1ccc(Cl)cc1 |  | inactive | Non-toxic | inhibition [1]: inactive |
| O=C(C[C@@H]1C/C=C/CCC(=O)O[C@@H](c2ccccc2)CNC1=O)NCc1ccc(Cl)cc1 | Dose-dependent effect | inactive | > 15.6 µM | ECmax [6]: 57% |
| O=C(C[C@H]1C/C=C/CCC(=O)O[C@@H](c2ccccc2)CNC1=O)NCc1ccc(Cl)cc1 | Dose-dependent effect | inactive | Non-toxic |  |
| O=C(C[C@@H]1C/C=C/CCCC(=O)O[C@H](c2ccccc2)CNC1=O)NCc1ccc(Cl)cc1 | Dose-dependent effect | inactive | Non-toxic | ECmax [4]: 93% |
| O=C(C[C@H]1C/C=C/CCC(=O)OCCNC1=O)NCc1ccc(Cl)cc1 | Dose-dependent effect | inactive | Non-toxic | ECmax [4]: 50% |
| O=C(C[C@H]1C/C=C/CCCC(=O)OCCNC1=O)NCc1ccc(Cl)cc1 |  | inactive | Non-toxic |  |
| O=C(C[C@@H]1C/C=C/CCCC(=O)O[C@@H](c2ccccc2)CNC1=O)NCc1ccc(Cl)cc1 | Dose-dependent effect | inactive | Non-toxic |  |
| O=C(C[C@@H]1C/C=C/CCC(=O)OCCNC1=O)NCc1ccc(Cl)cc1 | Dose-dependent effect | inactive | Non-toxic | ECmax [4]: 55% |
| O=C(C[C@@H]1C/C=C/CCCCC(=O)O[C@H](c2ccccc2)CNC1=O)NCc1ccc(Cl)cc1 | Dose-dependent effect | inactive | Non-toxic |  |
| O=C(C[C@H]1C/C=C/CCCCC(=O)OCCNC1=O)NCc1ccc(Cl)cc1 |  | inactive | Non-toxic |  |
| O=C(C[C@H]1C/C=C/CCCCC(=O)O[C@@H](c2ccccc2)CNC1=O)NCc1ccc(Cl)cc1 |  | inactive | Non-toxic |  |
| O=C(C[C@H]1C/C=C/CCCC(=O)O[C@@H](c2ccccc2)CNC1=O)NCc1ccc(Cl)cc1 | Dose-dependent effect | inactive | Non-toxic | Kd [1]: 3.1 µM |
| O=C(C[C@H]1C/C=C/CCCC(=O)O[C@H](c2ccccc2)CNC1=O)NCc1ccc(Cl)cc1 |  | inactive | Non-toxic | ECmax [7]: 71% |
| O=C(C[C@@H]1C/C=C/CCCCC(=O)OCCNC1=O)NCc1ccc(Cl)cc1 | Dose-dependent effect | inactive | Non-toxic | ECmax [4]: 70% |
| O=C(C[C@@H]1C/C=C/CCCCC(=O)O[C@@H](c2ccccc2)CNC1=O)NCc1ccc(Cl)cc1 | Dose-dependent effect | inactive | > 31 µM |  |
| O=C(C[C@H]1C/C=C/CCC(=O)O[C@H](c2ccccc2)CNC1=O)NCc1ccc(Cl)cc1 | Dose-dependent effect | inactive | Non-toxic | ECmax [8]: 62.5 µM |
| O=C(C[C@@H]1C/C=C/CCCC(=O)OCCNC1=O)NCc1ccc(Cl)cc1 | Dose-dependent effect | inactive | Non-toxic |  |

— ChEMBL document CHEMBL1154349, “Syntheses of aminoalcohol-derived macrocycles leading to a small-molecule binder to and inhibitor of Sonic Hedgehog” (Bioorg Med Chem Lett, 2009)
